Source: paper PMC6017286, “VSP-17, a New PPARγ Agonist, Suppresses the Metastasis of Triple-Negative Breast Cancer via Upregulating the Expression of E-Cadherin” (Molecules : A Journal of Synthetic Chemistry and Natural …, 2018)

Molecular target: T1, PPARγ (Homo sapiens, UniProt P37231)
T1 construct: gene PPARG; GST-fused human PPARγ-LBD
T1 sequence (P37231 231-505 limits assumed): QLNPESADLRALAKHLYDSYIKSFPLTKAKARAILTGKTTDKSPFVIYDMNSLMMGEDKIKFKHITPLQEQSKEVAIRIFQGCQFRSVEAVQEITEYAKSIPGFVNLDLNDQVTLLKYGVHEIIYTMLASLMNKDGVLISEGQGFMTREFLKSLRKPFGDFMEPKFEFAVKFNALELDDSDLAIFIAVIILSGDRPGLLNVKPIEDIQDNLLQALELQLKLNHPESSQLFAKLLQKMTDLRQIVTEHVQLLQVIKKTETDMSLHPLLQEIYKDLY
Assay: LanthaScreen TR-FRET competitive binding assay (displacement of fluorescent PPAR ligand)

Q: O=C(NCc1ccncc1)c1ccc2c(ccn2Cc2ccc(C(F)(F)F)cc2)c1 [VSP-17] was tested. Which Ki did it give?
A: Its Ki is 270 nM.
